Measured values: patent US20060160197A1 (priority 2004, published 2006)

Legend:
Assay type in all cases: physicochemical
[1] = Example 2 reactive solvent extraction, 70% Alamine 336/10% MIBK/20% kerosene, 50° C.; details: pH 2 to 3
Method: (§1) A variety of analytical methods can be employed to analyze the reactants and products produced using the present methods include HPLC, GC, ion selective electrodes, MS, NMR, etc. HPLC was used to measure glycolic acid and various related products. Briefly, samples are diluted with water (as needed to be within HPLC detection range) and mixed 1:1 with 0.2 M n-propanol in water (HPLC internal standard). HPLC Analytical Method: (BioRad HPX 87H ion exclusion column (BioRad, Hercules, Calif.), 300 mm×7.8 mm; 0.01 N H2SO4 mobile phase; 1.0 mL/min flow at 50° C.; 10 μL injection volume; RI detector and UV 210 nm, 20 min analysis time). HPLC Equipment: (Waters 2695 ‘Alliance’ Separations Module, 2410 Refractive Index Detector, 2487 Dual λ Absorbance Detector and Empower Pro Software (Waters Corp, Milford, Mass.).
Solvent Extraction Using Approximately 70% C8-C10 Trialkylamine in Combination with 10% Methyl Isobutyl Ketone and 20% Kerosene at 50° C.
(§2) Into a 4-mL glass reactor equipped with magnetic stir bar was placed 1 mL of a mixed solvent containing 70% (volume/volume) Alamine® 336 (Cognis), 10% (volume/volume) methyl isobutyl ketone (MIBK) and 20% (volume/volume) kerosene. The pH of an aqueous solution of ammonium glycolate (5 wt % to 40 wt %) was adjusted to pH 2 to 3 with concentrated sulfuric acid, then 1 mL of the resulting aqueous solution was added to the reactor. The resulting mixture was stirred for 30 minutes at 50° C.

[2] = Example 3 reactive solvent extraction, 70% Alamine 336/10% MIBK/20% kerosene, 75° C.; details: pH 2 to 3
Method: as §1
Solvent Extraction Using Approximately 70% C8-C10 Trialkylamine in Combination with 10% Methyl Isobutyl Ketone and 20% Kerosene at 75° C.
as §2, with “75°” for “50°”

[3] = Example 7 reactive solvent extraction, 50% Alamine 336/10% MIBK/40% kerosene, 75° C.; details: pH 2 to 3
Method: as §1
Solvent Extraction Using Approximately 50% C8-C10 Trialkylamine in Combination with 10% Methyl Isobutyl Ketone and 40% Kerosene at 75° C.
as §2, with “50%” for “70%”, “40%” for “20%”, “75°” for “50°”

[4] = Example 12 reactive solvent extraction, 90% Alamine 336/10% toluene, 25° C.; details: pH 2 to 3
Method: as §1
Solvent Extraction Using Approximately 90% C8-C10 Trialkylamine in Combination with 10% Toluene at 25° C.
as §2, with “90%” for “70%”, “toluene.” for “methyl isobutyl ketone (MIBK) and 20% (volume/volume) kerosene.”, “25°” for “50°”

[5] = Example 18 back extraction using water from loaded solvent (70% Alamine 336/10% MIBK/20% kerosene), 140° C.; details: back extraction into deionized water, 40 psig nitrogen
Method: as §1
Following the procedures in Example 1, into a 1-L cylindrical glass vessel on an extraction mixer (mix by rotating back and forth vertically) was placed 100 mL of a mixed solvent containing 70% (volume/volume) Alamine® 336 (Cognis), 10% (volume/volume) methyl isobutyl ketone (MIBK) and 20% (volume/volume) kerosene. The pH of an aqueous solution of ammonium glycolate (10 wt % to 50 wt %) was adjusted to approximately pH 2 to 3 with concentrated sulfuric acid, then 100 mL of the resulting aqueous solution was added to the extraction mixer. The resulting mixture was stirred for 60 minutes at room temperature. […] The organic phase was collected and used in the back extraction. This organic phase containing glycolic acid is referred as “loaded solvent” below.
Back Extraction Using Water from a Loaded Solvent of Approximately 70% C8-C10 Trialkylamine in Combination with 10% Methyl Isobutyl Ketone and 20% Kerosene
Into a 85-mL pressure reaction glass tube (pressure reaction vessel, from Andrews Glass Co.) equipped with magnetic stir bar and double dip tubes was placed 10 mL deionized water and 10 mL of the loaded solvent (see Example 16). The vessel was then closed, and the headspace purged with nitrogen. The resulting mixture was stirred for 60 minutes at 140° C. under 40 psig (˜275.8 kPa) nitrogen. The stirring was stopped and the two phases allowed to separate at 140° C., then the organic phase was sampled under pressure through the top dip tube into a Hoke cylinder, and aqueous phases was sampled under pressure through the bottom dip tube into another Hoke cylinder.

[6] = initial 3.6 wt % glycolic acid in aqueous phase
[7] = initial 8.5 wt % glycolic acid in aqueous phase
[8] = initial 12.1 wt % glycolic acid in aqueous phase
[9] = initial 16.1 wt % glycolic acid in aqueous phase
[10] = initial 20.6 wt % glycolic acid in aqueous phase
[11] = initial 25.1 wt % glycolic acid in aqueous phase
[12] = initial 29.1 wt % glycolic acid in aqueous phase
[13] = initial 32.8 wt % glycolic acid in aqueous phase

Partition coefficient (wt % org./wt % aq.) [1, 6]: 0.32
Partition coefficient (wt % org./wt % aq.) [1, 7]: 0.66
Partition coefficient (wt % org./wt % aq.) [1, 8]: 0.63
Partition coefficient (wt % org./wt % aq.) [1, 9]: 0.74
Partition coefficient (wt % org./wt % aq.) [1, 10]: 0.69
Partition coefficient (wt % org./wt % aq.) [1, 11]: 0.83
Partition coefficient (wt % org./wt % aq.) [1, 12]: 0.68
Partition coefficient (wt % org./wt % aq.) [1, 13]: 0.61
Partition coefficient (wt % org./wt % aq.) [2, 6]: 0.16
Partition coefficient (wt % org./wt % aq.) [2, 7]: 0.22
Partition coefficient (wt % org./wt % aq.) [2, 10]: 0.49
Partition coefficient (wt % org./wt % aq.) [2, 11]: 0.56
Partition coefficient (wt % org./wt % aq.) [2, 12]: 0.54
Partition coefficient (wt % org./wt % aq.) [2, 13]: 0.52
Partition coefficient (wt % org./wt % aq.) [3, 6]: 0.38
Partition coefficient (wt % org./wt % aq.) [3, 7]: 0.32
Partition coefficient (wt % org./wt % aq.) [3, 8]: 0.35
Partition coefficient (wt % org./wt % aq.) [3, 9]: 0.28
Partition coefficient (wt % org./wt % aq.) [3, 10]: 0.33
Partition coefficient (wt % org./wt % aq.) [3, 11]: 0.35
Partition coefficient (wt % org./wt % aq.) [3, 12]: 0.35
Partition coefficient (wt % org./wt % aq.) [3, 13]: 0.35
Partition coefficient (wt % org./wt % aq.) [4, 6]: 1.22
Partition coefficient (wt % org./wt % aq.) [4, 7]: 1.41
Partition coefficient (wt % org./wt % aq.) [4, 8]: 1.46
Partition coefficient (wt % org./wt % aq.) [4, 9]: 1.23
Partition coefficient (wt % org./wt % aq.) [4, 10]: 1.20
Partition coefficient (wt % org./wt % aq.) [4, 11]: 1.26
Partition coefficient (wt % org./wt % aq.) [4, 12]: 1.00
Partition coefficient (wt % org./wt % aq.) [4, 13]: 0.86
Partition coefficient (wt % org./wt % aq.) ([5]; initial 3.9 wt % glycolic acid in loaded solvent): 0.48
Partition coefficient (wt % org./wt % aq.) ([5]; initial 11.3 wt % glycolic acid in loaded solvent): 0.37
Partition coefficient (wt % org./wt % aq.) ([5]; initial 16.0 wt % glycolic acid in loaded solvent): 0.34
Partition coefficient (wt % org./wt % aq.) ([5]; initial 17.5 wt % glycolic acid in loaded solvent): 0.35
Compound: O=C(O)CO [glycolic acid]
